≈ marks a conversion by molar mass, not a printed value. Read-outs that look alike come from different tables or passages of the source.
Key:
[1] = tested on: Staphylococcus aureus ATCC 6538; assay: MIC, two-fold dilution microtiter, S. aureus ATCC 6538; assay type: cell-based
[2] = tested on: S. aureus TOUR L 165; assay: MIC, two-fold dilution microtiter, S. aureus TOUR L 165; assay type: cell-based, Staphylococcus aureus
[3] = tested on: S. aureus TOUR L 1282; assay: MIC, two-fold dilution microtiter, rifampicin resistant S. aureus TOUR L 1282; assay type: cell-based; conditions: Staphylococcus aureus, TOURL1282, rifampicin resistant strain
[4] = tested on: Streptococcus pyogenes C203; assay: MIC, two-fold dilution microtiter, S. pyogenes C203; assay type: cell-based; conditions: Todd-Hewitt broth, 18-24 h, 37° C
Method: (§1) The minimum inhibitory concentration (MIC) of representative compounds of the invention was determined using two-fold dilution method in microtiter system. The media used were: Todd-Hewitt broth (Difco) for steptococci; Iso-Sensitest broth (Oxoid) for staphylococci and gram-negative bacteria. The final inoculum was about 10^4 cfμ/ml. […] For M. tuberculosis H37 RV the inoculum consisted of 0.5-1% of a 7-9 day culture in Dubos medium. The tests were carried out in Kirschner medium supplemented with 10% horse serum. Observations were made after 7-days incubation at 37° C.

[5] = tested on: S. faecalis ATCC 7080; assay: MIC, two-fold dilution microtiter, S. faecalis ATCC 7080; assay type: cell-based; conditions: 37° C
[6] = tested on: S. pneumoniae UC 41; assay: MIC, two-fold dilution microtiter, S. pneumoniae UC 41; assay type: cell-based; conditions: 18-24 h, 37° C
[7] = tested on: Proteus vulgaris XI9H ATCC 881; assay: MIC, two-fold dilution microtiter, P. vulgaris; assay type: cell-based
[8] = tested on: Escherichia coli SKF 12140; assay: MIC, two-fold dilution microtiter, E. coli SKF 12140; assay type: cell-based; conditions: 18-24 h, 37° C
[9] = tested on: Klebsiella pneumoniae ISM; assay: MIC, two-fold dilution microtiter, K. pneumoniae ISM; assay type: cell-based
[10] = tested on: Pseudomonas aeruginosa ATCC 10145; assay: MIC, two-fold dilution microtiter, P. aeruginosa ATCC 10145; assay type: cell-based
[11] = tested on: Mycobacterium tuberculosis H37RV ATCC 9360; assay: MIC, M. tuberculosis H37RV, Kirschner medium; assay type: cell-based; conditions: 10% horse serum, 7 days, 37° C
Method: as §1

[12] = tested on: S. aureus tour L 165; assay: experimental septicemia in mice (S. aureus); assay type: in vivo; conditions: Staphylococcus aureus, once daily for three days, survival on 10th day
Method: The antimicrobial activity of the compounds of the invention is also confirmed in "in vivo" tests. The animals (groups of five mice) were infected by intraperitoneal injection of 16-hour broth culture of S. aureus tour L 165. Inocula were adjusted so that untreated animals died of septicemia within 48 hours. Animals were treated once daily for three days starting immediately after infection. On the 10th day the value for the ED50 in mg/kg/day was calculated by the method of […]-KARBER (Finney, D. J., Statistical method in biological assay, page 524. C. Griffin Ltd., London, 1952), on the basis of the percentage of surviving animals at each dose.

[13] = Staphylococcus aureus, ATCC6538, S. aureus ATCC 6538, Iso-Sensitest broth, 18-24 h, 37° C, read-out: MIC
[14] = Staphylococcus aureus, TOURL165, S. aureus TOUR L 165, Iso-Sensitest broth, 18-24 h, 37° C, read-out: MIC
[15] = Staphylococcus aureus, TOURL165, S. aureus TOUR L 165, supplemented with 30% bovine serum, read-out: MIC
[16] = Streptococcus pyogenes, read-out: MIC
[17] = Enterococcus faecalis, ATCC7080, 18-24 h, read-out: MIC
[18] = Streptococcus pneumoniae, UC41, Todd-Hewitt broth, read-out: MIC
[19] = Proteus vulgaris, ATCC881, P. vulgaris XI9H ATCC 881, Iso-Sensitest broth, 18-24 h, 37° C, read-out: MIC
[20] = Escherichia coli, SKF12140, Iso-Sensitest broth, read-out: MIC
[21] = Pseudomonas aeruginosa, ATCC10145, P. aeruginosa ATCC 10145, Iso-Sensitest broth, 18-24 h, 37° C, read-out: MIC
[22] = Mycobacterium tuberculosis, 168 h, read-out: MIC
[23] = Klebsiella pneumoniae, K. pneumoniae ISM, Iso-Sensitest broth, 18-24 h, 37° C, read-out: MIC
[24] = S. aureus TOUR L 165, supplemented with 30% bovine serum

Compound	MIC [1, 13] [µg/mL]	MIC [2, 14] [µg/mL]	MIC [2, 15] [µg/mL]	MIC [3] [µg/mL]	MIC [4, 16] [µg/mL]	MIC [5, 17] [µg/mL]	MIC [6, 18] [µg/mL]	MIC [7, 19] [µg/mL]	MIC [8, 20] [µg/mL]	MIC ([9]; Klebsiella pneumoniae) [µg/mL]	MIC [10, 21] [µg/mL]	MIC [11, 22] [µg/mL]	ED50 ([12]; TOURL165, 240 h, sc) [mg/kg]	ED50 ([12]; TOURL165, po, 240 h, os) [mg/kg]	MIC [9, 23] [µg/mL]	MIC [2, 24] [µg/mL]	other results
COC1C=COC2(C)Oc3c(C)c(O)c4c(O)c(c5sc(N6CCN(c7ccccc7)CC6)nc5c4c3C2=O)NC(=O)C(C)=CC=CC(C)C(O)C(C)C(O)C(C)C(OC(C)=O)C1C (centres unmarked) [Example 1c, 2'(4"-phenyl-1"-piperazinyl) rifamycin P]	0.004 (≈ 0.00445 µM)	0.008 (≈ 0.0089 µM)	0.016 (≈ 0.0178 µM)	> 128	0.032 (≈ 0.0356 µM)	1 (≈ 1.11 µM)	0.004 (≈ 0.00445 µM)	16 (≈ 17.8 µM)	4 (≈ 4.45 µM)	> 128	8 (≈ 8.9 µM)	1 (≈ 1.11 µM)	0.63	2.5	–	–	–
COC1C=COC2(C)Oc3c(C)c(O)c4c(O)c(c5sc(N6CCCC6)nc5c4c3C2=O)NC(=O)C(C)=CC=CC(C)C(O)C(C)C(O)C(C)C(OC(C)=O)C1C (centres unmarked) [Example 1a, 2'-(1"-PyrrolidinyL) rifamycin P]	0.016 (≈ 0.0198 µM)	0.004 (≈ 0.00495 µM)	0.016 (≈ 0.0198 µM)	> 128	0.008 (≈ 0.0099 µM)	2 (≈ 2.48 µM)	0.032 (≈ 0.0396 µM)	16 (≈ 19.8 µM)	16 (≈ 19.8 µM)	–	8 (≈ 9.9 µM)	2 (≈ 2.48 µM)	–	–	32 (≈ 39.6 µM)	–	–
COC1C=COC2(C)Oc3c(C)c(O)c4c(O)c(c5sc(N6CCNCC6)nc5c4c3C2=O)NC(=O)C(C)=CC=CC(C)C(O)C(C)C(O)C(C)C(OC(C)=O)C1C (centres unmarked) [Example 4, 2'-(1"-Piperazinyl) rifamycin P]	–	–	–	> 128	0.125 (≈ 0.152 µM)	2 (≈ 2.43 µM)	0.064 (≈ 0.0778 µM)	8 (≈ 9.72 µM)	8 (≈ 9.72 µM)	–	16 (≈ 19.4 µM)	–	–	–	16 (≈ 19.4 µM)	0.125 (≈ 0.152 µM)	MIC ([1]; Staphylococcus aureus, ATCC6538): 0.125 µg/mL (≈ 0.152 µM); MIC ([2]; Staphylococcus aureus, TOURL165): 0.125 µg/mL (≈ 0.152 µM)
COC1C=COC2(C)Oc3c(C)c(O)c4c(O)c(c5sc(N6CCN(c7ccc(Cl)cc7)CC6)nc5c4c3C2=O)NC(=O)C(C)=CC=CC(C)C(O)C(C)C(O)C(C)C(OC(C)=O)C1C (centres unmarked) [Example 3d, 2'-[4"(4'"-chlorophenyl)-1-piperazinyl]rifamycin P]	0.064 (≈ 0.0686 µM)	0.064 (≈ 0.0686 µM)	0.25 (≈ 0.268 µM)	> 128	0.064 (≈ 0.0686 µM)	2 (≈ 2.14 µM)	0.125 (≈ 0.134 µM)	–	1 (≈ 1.07 µM)	> 128	–	1 (≈ 1.07 µM)	3.3	3.3	–	–	MIC ([7]; Proteus vulgaris, ATCC881): > 128 µg/mL; MIC ([10]; Pseudomonas aeruginosa, ATCC10145): 128 µg/mL (≈ 137 µM)
2'(4"-phenylmethoxycarbonyl-1"-piperazinyl) rifamycin P [Example 1f]	–	–	–	–	–	–	–	–	–	–	–	–	–	–	–	0.064	MIC ([1]; S. aureus ATCC 6538, Iso-Sensitest broth, 18-24 h, 37° C): 0.064 µg/mL; MIC ([2]; S. aureus TOUR L 165, Iso-Sensitest broth, 18-24 h, 37° C): 0.064 µg/mL; MIC [4]: 0.125 µg/mL; MIC ([5]; 18-24 h): 2 µg/mL; MIC ([6]; Todd-Hewitt broth): 0.064 µg/mL; MIC ([7]; P. vulgaris XI9H ATCC 881, Iso-Sensitest broth, 18-24 h, 37° C): 64 µg/mL; MIC ([8]; Iso-Sensitest broth): > 128 µg/mL; MIC ([9]; K. pneumoniae ISM, Iso-Sensitest broth, 18-24 h, 37° C): > 128 µg/mL; MIC ([10]; P. aeruginosa ATCC 10145, Iso-Sensitest broth, 18-24 h, 37° C): 32 µg/mL; MIC [11]: 0.5 µg/mL
COC1C=COC2(C)Oc3c(C)c(O)c4c(O)c(c5sc(N6CCN(Cc7ccccc7)CC6)nc5c4c3C2=O)NC(=O)C(C)=CC=CC(C)C(O)C(C)C(O)C(C)C(OC(C)=O)C1C (centres unmarked) [Example 1d, 2'(4"-phenylmethyl-1"-piperazinyl) rifamycin P]	0.004 (≈ 0.00438 µM)	0.008 (≈ 0.00876 µM)	0.016 (≈ 0.0175 µM)	> 128	0.064 (≈ 0.0701 µM)	1 (≈ 1.1 µM)	0.064 (≈ 0.0701 µM)	32 (≈ 35 µM)	32 (≈ 35 µM)	–	16 (≈ 17.5 µM)	0.125 (≈ 0.137 µM)	–	–	64 (≈ 70.1 µM)	–	–

Source: patent US4880789A, “2'-Substituted-4-deoxy-thiazolo(5,4-c)-rifamycin SV derivatives” (Gruppo Lepetit S.P.A., priority 1985, dated 1989)
